Here are results for three compounds from ChEMBL document CHEMBL4145634, “Discovery of Janus Kinase 2 (JAK2) and Histone Deacetylase (HDAC) Dual Inhibitors as a Novel Strategy for the Combinational Treatment of Leukemia and Invasive Fungal Infections” (J Med Chem, 2018).

Converted amounts (≈) assume the structure as drawn. The source made the active and inactive calls. The calls are words filed in the database; no cut-off is given here.

For data set [1], the target named is Non-receptor tyrosine-protein kinase TYK2 (Homo sapiens, UniProt P29597). Briefly: Inhibition of TYK2 (unknown origin) using FAM-labeled peptide as substrate preincubated for 10 mins followed by substrate addition and measured after 25 mins in presence of ATP.
Sequence of Non-receptor tyrosine-protein kinase TYK2 (P29597 whole entry): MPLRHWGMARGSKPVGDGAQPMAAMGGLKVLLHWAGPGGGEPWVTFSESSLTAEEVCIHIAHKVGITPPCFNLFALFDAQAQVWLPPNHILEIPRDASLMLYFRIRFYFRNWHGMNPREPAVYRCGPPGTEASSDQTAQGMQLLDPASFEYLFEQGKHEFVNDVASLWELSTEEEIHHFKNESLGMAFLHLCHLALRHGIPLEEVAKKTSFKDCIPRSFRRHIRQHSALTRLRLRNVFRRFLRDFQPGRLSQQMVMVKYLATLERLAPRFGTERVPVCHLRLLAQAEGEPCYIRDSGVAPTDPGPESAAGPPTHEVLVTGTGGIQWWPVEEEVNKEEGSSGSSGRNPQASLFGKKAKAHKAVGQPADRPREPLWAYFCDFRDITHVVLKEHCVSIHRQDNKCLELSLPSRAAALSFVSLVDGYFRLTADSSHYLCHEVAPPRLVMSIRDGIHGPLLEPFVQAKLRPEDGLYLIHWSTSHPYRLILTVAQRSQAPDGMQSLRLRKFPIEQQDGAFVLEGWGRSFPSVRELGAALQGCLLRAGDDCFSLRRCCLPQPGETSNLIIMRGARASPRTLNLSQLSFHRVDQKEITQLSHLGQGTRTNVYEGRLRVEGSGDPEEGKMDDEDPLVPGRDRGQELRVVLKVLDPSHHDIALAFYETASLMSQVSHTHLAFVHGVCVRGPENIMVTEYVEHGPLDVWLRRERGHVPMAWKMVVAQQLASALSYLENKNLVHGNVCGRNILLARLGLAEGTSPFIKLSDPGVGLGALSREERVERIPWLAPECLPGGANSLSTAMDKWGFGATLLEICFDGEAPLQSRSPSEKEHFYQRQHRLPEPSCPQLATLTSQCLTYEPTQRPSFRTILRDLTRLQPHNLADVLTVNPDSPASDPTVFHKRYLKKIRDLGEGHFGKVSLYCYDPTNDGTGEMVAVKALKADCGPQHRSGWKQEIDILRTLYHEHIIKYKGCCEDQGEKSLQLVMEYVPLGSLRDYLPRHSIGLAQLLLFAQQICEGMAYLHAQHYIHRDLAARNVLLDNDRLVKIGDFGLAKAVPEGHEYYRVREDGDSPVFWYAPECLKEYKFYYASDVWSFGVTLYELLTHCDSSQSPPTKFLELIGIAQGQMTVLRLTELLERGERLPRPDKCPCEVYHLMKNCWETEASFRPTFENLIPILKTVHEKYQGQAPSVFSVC
The target of a further data set is Histone deacetylase 1 (Homo sapiens, UniProt Q13547). Briefly: Inhibition of full length human recombinant HDAC1 expressed in baculovirus expression system using (Ac-Leu-Gly-Lys(Ac)-AMC as substrate preincubated for 5 mins followed by substrate addition and measured after 30 mins by fluorescence assay.
Sequence of Histone deacetylase 1 (Q13547 whole entry): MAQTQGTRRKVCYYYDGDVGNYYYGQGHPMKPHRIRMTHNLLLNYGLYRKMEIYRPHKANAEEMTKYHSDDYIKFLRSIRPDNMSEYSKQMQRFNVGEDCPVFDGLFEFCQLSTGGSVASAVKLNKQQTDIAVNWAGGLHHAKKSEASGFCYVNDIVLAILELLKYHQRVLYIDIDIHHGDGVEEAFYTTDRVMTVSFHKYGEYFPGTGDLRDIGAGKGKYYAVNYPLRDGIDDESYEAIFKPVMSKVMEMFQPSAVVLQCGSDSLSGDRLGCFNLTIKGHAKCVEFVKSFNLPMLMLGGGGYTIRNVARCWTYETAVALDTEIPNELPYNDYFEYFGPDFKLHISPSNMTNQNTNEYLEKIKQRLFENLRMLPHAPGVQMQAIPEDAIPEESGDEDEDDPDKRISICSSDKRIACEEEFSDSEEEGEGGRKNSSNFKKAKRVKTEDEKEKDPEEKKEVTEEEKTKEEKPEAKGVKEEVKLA
The test system of data set [2] is HEL. Briefly: Induction of apoptosis in human HEL cells after 48 hrs by Annexin-V-FITC/propidium iodide staining based flow cytometry. The data set is classed as functional, cell-based. (Flow cytometry measures light scatter and fluorescence of single cells or particles in a stream.)
The target of data set [3] is Tyrosine-protein kinase JAK1 (Homo sapiens, UniProt P23458). Nature of the data set: Inhibition of JAK1 (unknown origin) using FAM-labeled peptide as substrate preincubated for 10 mins followed by substrate addition and measured after 25 mins in presence of ATP.
Sequence of Tyrosine-protein kinase JAK1 (P23458 whole entry): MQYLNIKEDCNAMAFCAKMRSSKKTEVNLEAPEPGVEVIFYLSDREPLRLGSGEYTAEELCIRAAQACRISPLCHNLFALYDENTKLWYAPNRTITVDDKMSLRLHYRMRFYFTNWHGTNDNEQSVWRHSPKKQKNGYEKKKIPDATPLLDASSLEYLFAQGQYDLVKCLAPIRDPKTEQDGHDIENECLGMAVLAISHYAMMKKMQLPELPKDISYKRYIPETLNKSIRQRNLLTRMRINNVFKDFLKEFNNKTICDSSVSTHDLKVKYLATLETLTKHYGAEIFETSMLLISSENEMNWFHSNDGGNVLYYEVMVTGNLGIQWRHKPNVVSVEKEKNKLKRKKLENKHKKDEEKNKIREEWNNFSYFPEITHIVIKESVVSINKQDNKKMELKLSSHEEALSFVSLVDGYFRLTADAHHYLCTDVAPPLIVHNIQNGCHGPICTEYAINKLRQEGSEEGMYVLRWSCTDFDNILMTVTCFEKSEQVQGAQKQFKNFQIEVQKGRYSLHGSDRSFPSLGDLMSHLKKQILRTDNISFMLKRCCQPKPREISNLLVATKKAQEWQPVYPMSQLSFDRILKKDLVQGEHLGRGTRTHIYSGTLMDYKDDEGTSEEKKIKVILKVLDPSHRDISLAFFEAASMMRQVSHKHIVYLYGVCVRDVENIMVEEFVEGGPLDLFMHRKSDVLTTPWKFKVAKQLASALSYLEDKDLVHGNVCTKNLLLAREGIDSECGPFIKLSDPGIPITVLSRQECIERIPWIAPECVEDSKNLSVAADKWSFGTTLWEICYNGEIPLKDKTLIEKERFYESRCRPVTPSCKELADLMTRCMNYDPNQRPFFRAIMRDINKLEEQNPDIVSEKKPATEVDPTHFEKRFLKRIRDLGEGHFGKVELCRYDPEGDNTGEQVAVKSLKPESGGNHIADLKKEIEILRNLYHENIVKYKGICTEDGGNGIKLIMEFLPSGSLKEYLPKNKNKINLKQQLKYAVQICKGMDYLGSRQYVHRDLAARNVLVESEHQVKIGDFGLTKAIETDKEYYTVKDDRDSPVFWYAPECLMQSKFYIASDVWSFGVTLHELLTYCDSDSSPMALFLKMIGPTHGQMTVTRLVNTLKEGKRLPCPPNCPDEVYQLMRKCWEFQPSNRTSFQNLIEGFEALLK
The target in data set [4] is T1, Protein deacetylase HDAC6 (Homo sapiens, UniProt Q9UBN7).
T1 sequence (Q9UBN7 whole entry): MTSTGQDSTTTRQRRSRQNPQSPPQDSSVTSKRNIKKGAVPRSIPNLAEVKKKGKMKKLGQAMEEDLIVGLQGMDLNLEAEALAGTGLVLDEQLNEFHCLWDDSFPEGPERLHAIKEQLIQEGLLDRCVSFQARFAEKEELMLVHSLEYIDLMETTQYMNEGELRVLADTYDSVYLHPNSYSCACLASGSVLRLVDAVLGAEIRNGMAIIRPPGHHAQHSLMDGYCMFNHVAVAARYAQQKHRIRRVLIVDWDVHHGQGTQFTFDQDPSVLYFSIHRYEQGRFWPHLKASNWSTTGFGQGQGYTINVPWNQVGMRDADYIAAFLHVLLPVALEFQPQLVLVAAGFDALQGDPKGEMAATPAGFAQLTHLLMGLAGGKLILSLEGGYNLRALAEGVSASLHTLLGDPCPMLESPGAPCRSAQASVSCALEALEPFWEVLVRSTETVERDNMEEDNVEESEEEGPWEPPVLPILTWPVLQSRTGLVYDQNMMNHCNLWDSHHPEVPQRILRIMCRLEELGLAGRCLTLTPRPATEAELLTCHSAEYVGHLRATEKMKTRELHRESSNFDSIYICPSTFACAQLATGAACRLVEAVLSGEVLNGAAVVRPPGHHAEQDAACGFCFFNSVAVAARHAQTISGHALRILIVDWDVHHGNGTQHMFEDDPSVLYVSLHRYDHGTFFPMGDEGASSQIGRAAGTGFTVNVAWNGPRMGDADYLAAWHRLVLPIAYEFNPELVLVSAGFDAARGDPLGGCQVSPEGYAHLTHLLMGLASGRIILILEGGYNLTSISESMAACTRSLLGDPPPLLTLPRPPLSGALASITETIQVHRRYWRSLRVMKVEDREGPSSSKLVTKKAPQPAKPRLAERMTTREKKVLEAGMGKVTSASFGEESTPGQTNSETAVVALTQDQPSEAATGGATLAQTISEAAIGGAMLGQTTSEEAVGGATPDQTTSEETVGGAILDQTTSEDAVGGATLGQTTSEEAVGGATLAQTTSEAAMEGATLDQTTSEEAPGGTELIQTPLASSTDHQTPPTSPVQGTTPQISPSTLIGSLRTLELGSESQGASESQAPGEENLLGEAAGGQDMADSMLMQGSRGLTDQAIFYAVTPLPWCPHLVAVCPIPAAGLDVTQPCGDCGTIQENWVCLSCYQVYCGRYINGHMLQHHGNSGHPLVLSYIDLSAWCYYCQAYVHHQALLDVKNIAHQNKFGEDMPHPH
Briefly: Inhibition of full length human recombinant HDAC6 expressed in Baculovirus infected Sf9 cells using (Ac-Leu-Gly-Lys(Ac)-AMC as substrate preincubated for 5 mins followed by substrate addition and measured after 30 mins by fluorescence assay.

The target in the next data set is T2, Histone deacetylase 8 (Homo sapiens, UniProt Q9BY41).
T2 sequence (Q9BY41 whole entry): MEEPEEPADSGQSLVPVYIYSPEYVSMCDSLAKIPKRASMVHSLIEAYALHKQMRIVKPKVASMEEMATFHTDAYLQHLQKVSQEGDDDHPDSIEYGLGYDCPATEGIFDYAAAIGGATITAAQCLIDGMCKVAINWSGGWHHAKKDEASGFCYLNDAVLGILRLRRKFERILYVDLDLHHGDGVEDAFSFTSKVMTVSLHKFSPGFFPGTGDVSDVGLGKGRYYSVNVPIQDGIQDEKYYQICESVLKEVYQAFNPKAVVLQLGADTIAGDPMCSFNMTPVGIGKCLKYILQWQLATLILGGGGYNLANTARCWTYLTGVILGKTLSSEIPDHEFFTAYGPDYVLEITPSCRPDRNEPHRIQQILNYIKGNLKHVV
Briefly: Inhibition of full length recombinant C-terminal His tagged human HDAC8 expressed in Baculovirus infected Sf9 cells using Ac-Leu-Gly-Lys(Tfa)-AMC as substrate preincubated for 5 mins followed by substrate addition and measured after 30 mins by fluorescence assay.

Data set [5] concerns Candida albicans. Nature of the data set: microbe, parasite or virus in culture. The format is functional. The note with it: Candida albicans, 0304103, 48 h.
Description: Antifungal activity against FLC resistant Candida albicans 0304103 after 48 hrs by checkerboard microdilution method
For data set [6], the system named is Candida albicans. Nature of the data set: microbe, parasite or virus in culture. The format is functional. Conditions: Candida albicans, 100, 48 h.
Description: Antifungal activity against FLC resistant Candida albicans 100 assessed as fluconazol MIC50 after 48 hrs by checkerboard microdilution method
Data set [7] concerns Candida albicans. Briefly: Antifungal activity against FLC resistant Candida albicans 100 after 48 hrs in presence of fluconazol by checkerboard microdilution method. The data set is classed as functional. Conditions: Candida albicans, 100, 48 h. For orientation: In broth dilution the organism is exposed to a series of concentrations in liquid medium.
The subject of data set [8] is Candida albicans. Briefly: microbe, parasite or virus in culture. The format is functional. The note with it: Candida albicans, 0710922, 48 h.
Description: Antifungal activity against FLC resistant Candida albicans 0710922 after 48 hrs in presence of fluconazol by checkerboard microdilution method
In data set [9] the test system is Candida albicans. Nature of the data set: Synergistic antifungal activity against FLC resistant Candida albicans 0304103 assessed as FIC index after 48 hrs by checkerboard microdilution method. The format is functional.
Data set [10] concerns Candida albicans. Nature of the data set: Antifungal activity against FLC resistant Candida albicans 0304103 at 32 ug/ml up to 24 hrs by checkerboard microdilution method. The data set is classed as functional, organism-based.
Data set [11] relates to Candida albicans. Nature of the data set: Antibiofilm activity against FLC resistant Candida albicans 0304103 assessed as inhibition of biofilm formation pre-incubated with 64 ug/ml FLC for 90 mins followed by further incubation with compound for 24 hrs by XTT reduction assay. The format is functional, organism-based. On the technique in general: Tetrazolium dyes change colour on reduction, which living cells bring about.

Data set [12] addresses Tyrosine-protein kinase JAK2 (Homo sapiens, UniProt O60674). Nature of the data set: Inhibition of JAK2 in human HEL cells assessed as decrease in STAT5 phosphorylation after 24 hrs by Western blot analysis. The data set is classed as cell-based.
For data set [13], the system named is Mus musculus. Nature of the data set: Toxicity in BALB/C nude mouse xenografted with human HEL cells assessed as reduction in body weight at 10 mg/kg, ip bid treated for 21 consecutive days. The format is organism-based. Conditions: in vivo.
Data set [14] concerns HEL. Nature of the data set: Antitumor activity in human HEL cells xenografted in SCID mouse assessed as increase in mouse survival at 10 mg/kg, ip qd measured up to 40 days. The format is functional, organism-based.
Data set [15] is described as follows: Clearance in ICR mouse liver microsomes at 1 uM measured up to 45 mins in presence of NADPH by LC-MS/MS analysis. The note with it: 0.75 h. The format is ADME, microsome.
For data set [16], the system named is Mus musculus. Briefly: In vivo antifungal activity against FLC resistant Candida albicans 0304103 infected in ICR mouse assessed as mouse survival at 5 mg/kg, ip qd up to 20 days in co-treated with 1 mg/kg, ip qd fluconazol (reference value: 4.5 day). The data set is classed as functional.

Sequence of Tyrosine-protein kinase JAK2 (O60674 whole entry): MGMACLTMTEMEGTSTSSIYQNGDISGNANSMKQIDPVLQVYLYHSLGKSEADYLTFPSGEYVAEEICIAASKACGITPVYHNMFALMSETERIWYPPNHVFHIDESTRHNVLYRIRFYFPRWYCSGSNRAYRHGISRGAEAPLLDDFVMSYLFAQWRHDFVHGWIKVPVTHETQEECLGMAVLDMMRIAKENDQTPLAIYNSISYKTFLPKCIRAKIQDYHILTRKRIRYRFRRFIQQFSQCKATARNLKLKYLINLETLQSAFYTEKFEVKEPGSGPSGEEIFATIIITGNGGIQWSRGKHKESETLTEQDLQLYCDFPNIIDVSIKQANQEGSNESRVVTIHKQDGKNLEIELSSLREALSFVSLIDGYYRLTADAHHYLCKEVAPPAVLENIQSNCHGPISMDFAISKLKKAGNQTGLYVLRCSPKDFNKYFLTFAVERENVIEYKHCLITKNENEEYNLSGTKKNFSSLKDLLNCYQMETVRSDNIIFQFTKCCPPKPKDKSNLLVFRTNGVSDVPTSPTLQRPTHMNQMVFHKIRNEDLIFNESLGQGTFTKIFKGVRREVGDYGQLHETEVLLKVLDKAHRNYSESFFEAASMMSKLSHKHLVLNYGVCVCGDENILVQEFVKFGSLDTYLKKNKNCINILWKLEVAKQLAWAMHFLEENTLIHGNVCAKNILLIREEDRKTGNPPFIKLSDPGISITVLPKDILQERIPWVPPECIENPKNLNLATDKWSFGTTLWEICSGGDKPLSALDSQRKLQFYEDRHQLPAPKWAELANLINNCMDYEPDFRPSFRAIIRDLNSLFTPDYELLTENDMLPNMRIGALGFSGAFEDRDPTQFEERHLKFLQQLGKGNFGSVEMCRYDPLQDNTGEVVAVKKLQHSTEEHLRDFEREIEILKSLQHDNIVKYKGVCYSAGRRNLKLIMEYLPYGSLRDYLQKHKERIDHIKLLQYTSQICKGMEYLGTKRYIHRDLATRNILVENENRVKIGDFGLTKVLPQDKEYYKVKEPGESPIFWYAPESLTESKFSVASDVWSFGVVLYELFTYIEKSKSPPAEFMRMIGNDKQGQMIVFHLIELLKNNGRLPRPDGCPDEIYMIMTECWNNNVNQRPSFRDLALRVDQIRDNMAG

As a reminder, the IC50 is the concentration that inhibits the measured activity by half. On to `CS(=O)(=O)Nc1ccc(-c2ccnc(Nc3ccc(N4CCC(C(=O)Nc5ccc(/C=C/C(=O)NO)cc5)CC4)cc3)n2)cc1`, for which the half-inhibitory concentration (IC50) in data set [1] amounted to 46 nM; at Histone deacetylase 1 it was 250 nM; in [3], 359 nM; in data set [4], 46 nM; at Histone deacetylase 8 it was 6070 nM. The Activity entry in the data set with HEL [2] is “Dose-dependent effect”; in the data set on Mus musculus [13], “Non-Toxic”. Moreover, the MIC50 with Candida albicans [5] is more than 64 µg/mL; with Candida albicans [6], 0.5 µg/mL (≈ 0.797 µM); with Candida albicans [7] it was 4 µg/mL; against Candida albicans [8], 8 µg/mL (≈ 12.7 µM). For the same compound, in the data set on Candida albicans [9], the “fractional inhibitory concentration index (FICI)” value came out at 0.07. For the same compound, the outcome in the data set on Candida albicans [10] was inactive. Moreover, the inhibition result (in the data set with Candida albicans [11]; in [12]) was “Dose-dependent effect” throughout. Also, the outcome in the data set with HEL [14] was Active. Moreover, the CLH in [15] turned out to be 71.6 µL/min/mg. In addition, the MST in the data set with Mus musculus [16] amounted to 11.5 days.

On to `CS(=O)(=O)Nc1ccc(-c2ccnc(Nc3ccc(N4CCC(C(=O)NCCCCCCCC(=O)NO)CC4)cc3)n2)cc1`, for which the half-inhibitory concentration (IC50) in [1] came to 74 nM; at Histone deacetylase 1, 18 nM; in data set [3], 76 nM; in data set [4], 74 nM; at Histone deacetylase 8 it was 572 nM. In addition, the Activity result was “Dose-dependent effect” in the data set with HEL [2] and “Non-Toxic” with Mus musculus [13]. Moreover, the MIC50 with Candida albicans [5] is more than 64 µg/mL; with Candida albicans [6] it was 0.5 µg/mL (≈ 0.802 µM); with Candida albicans [7], 8 µg/mL; against Candida albicans [8], 16 µg/mL (≈ 25.7 µM). In the data set on Candida albicans [9], the “fractional inhibitory concentration index (FICI)” value came out at 0.13. Further, the outcome in the data set with Candida albicans [10] was inactive. For the same compound, the inhibition entry (in the data set with Candida albicans [11]; in [12]) was “Dose-dependent effect” each time. Besides, in the data set on HEL [14], the result was Active. In [15], the CLH was 88.1 µL/min/mg. Besides, in the data set with Mus musculus [16], the MST was 13 days.

Consider `O=C(NO)c1ccc(-c2ccnc(Nc3ccc(N4CCOCC4)cc3)n2)cc1`, for which the IC50 was found to be 419 nM in data set [1]; 160 nM at Histone deacetylase 1; 69 nM in data set [3]; 419 nM in data set [4]; 609 nM at Histone deacetylase 8. Besides, the Activity result with HEL [2] was “Dose-dependent effect”; in the data set with Mus musculus [13] it was “Non-Toxic”. Besides, the MIC50 against Candida albicans [5] was more than 64 µg/mL; in the data set on Candida albicans [6] it was 0.5 µg/mL (≈ 1.28 µM); in the data set with Candida albicans [7], 8 µg/mL; with Candida albicans [8] it was 16 µg/mL (≈ 40.9 µM). Moreover, in the data set on Candida albicans [9], the “fractional inhibitory concentration index (FICI)” value was determined as 0.07. Besides, the outcome in the data set with Candida albicans [10] was inactive. Moreover, the inhibition result (in the data set with Candida albicans [11]; in data set [12]) was “Dose-dependent effect” in each case. In the data set on HEL [14], the result was Active. For the same compound, the CLH in data set [15] was 83.8 µL/min/mg. For the same compound, the MST in the data set with Mus musculus [16] was 11 days.
